Results as given in ChEMBL document CHEMBL4840329, “Antibiotic Dixiamycins from a Cold-Seep-Derived Streptomyces olivaceus” (2021).
In brackets after ≈: the same amount, converted by molar mass.

Legend:
Staphylococcus aureus = test: Anti-MDR bacterial activity against Staphylococcus aureus CCARM 3090 assessed as inhibition of bacterial growth incubated for 18 hrs by microplate reader analysis; format: functional
Enterococcus faecalis = test: Anti-MDR bacterial activity against Enterococcus faecalis CCARM 5172 assessed as inhibition of bacterial growth incubated for 18 hrs by microplate reader analysis; format: functional
Enterococcus faecium = test: Anti-MDR bacterial activity against Enterococcus faecium CCARM 5203 assessed as inhibition of bacterial growth incubated for 18 hrs by microplate reader analysis; format: functional
Micrococcus luteus = test: Anti-MDR bacterial activity against Micrococcus luteus ML01 assessed as inhibition of bacterial growth incubated for 18 hrs by microplate reader analysis; format: functional
Pseudomonas aeruginosa = test: Anti-MDR bacterial activity against Pseudomonas aeruginosa 15690 assessed as inhibition of bacterial growth incubated for 18 hrs by microplate reader analysis; format: functional
Escherichia coli = test: Anti-MDR bacterial activity against Escherichia coli CCARM 1009 assessed as inhibition of bacterial growth incubated for 18 hrs by microplate reader analysis; format: functional
Salmonella typhimurium = test: Anti-MDR bacterial activity against Salmonella typhimurium CCARM 8250 assessed as inhibition of bacterial growth incubated for 18 hrs by microplate reader analysis; format: functional, Salmonella enterica subsp. enterica serovar Typhimurium; details: Salmonella enterica
[1] = Enterococcus faecalis, CCARM 5172, 18 h, read-out: MIC
[2] = Enterococcus faecium, CCARM 5203, 18 h, read-out: MIC
[3] = Micrococcus luteus, ML01, 18 h, read-out: MIC
[4] = Pseudomonas aeruginosa, 15690, 18 h, read-out: MIC
[5] = Staphylococcus aureus, CCARM 3090, 18 h, read-out: MIC

| MIC (Enterococcus faecalis; [1]) | MIC (Enterococcus faecium; [2]) | MIC (Micrococcus luteus; [3]) | MIC (Pseudomonas aeruginosa; [4]) | MIC (Escherichia coli) | MIC (Salmonella typhimurium) | MIC (Staphylococcus aureus; [5]) | MIC (Staphylococcus aureus; 18 h) | MIC (Enterococcus faecium; 18 h) | MIC (Pseudomonas aeruginosa; 18 h) | MIC (Enterococcus faecalis; 18 h) | MIC (Micrococcus luteus; 18 h) | MIC (Micrococcus luteus) | MIC (Pseudomonas aeruginosa) | SMILES | MIC (Staphylococcus aureus; Staphylococcus aureus, CCARM 3090, read-out: MIC) |
| --- | --- | --- | --- | --- | --- | --- | --- | --- | --- | --- | --- | --- | --- | --- | --- |
| – | – | – | 1.56 mg/L (≈ 2.15 µM) | > 12.5 mg/L | > 12.5 mg/L | – | 3.12 mg/L (≈ 4.3 µM) | 6.25 mg/L (≈ 8.62 µM) | – | 6.25 mg/L (≈ 8.62 µM) | 6.25 mg/L (≈ 8.62 µM) | – | – | C[C@@]1(C(=O)O)[C@@H](O)CC[C@]2(C)c3cc4c(cc3CC[C@@H]12)[nH]c1c(-n2c3ccccc3c3cc5c(cc32)CC[C@H]2[C@](C)(C(=O)O)[C@@H](O)CC[C@]52C)cccc14 (stereo in doubt; 1) | – |
| – | – | – | – | – | – | – | 1.56 mg/L (≈ 2.15 µM) | 1.56 mg/L (≈ 2.15 µM) | 0.78 mg/L (≈ 1.08 µM) | 1.56 mg/L (≈ 2.15 µM) | – | 6.25 mg/L (≈ 8.62 µM) | – | C[C@@]1(C(=O)O)[C@@H](O)CC[C@]2(C)c3cc4c5ccccc5n(-n5c6ccccc6c6cc7c(cc65)CC[C@H]5[C@](C)(C(=O)O)[C@@H](O)CC[C@]75C)c4cc3CC[C@@H]12 (stereo in doubt; 6) | – |
| – | 3.12 mg/L (≈ 4.3 µM) | 6.25 mg/L (≈ 8.62 µM) | – | > 12.5 mg/L | > 12.5 mg/L | 3.12 mg/L (≈ 4.3 µM) | – | – | 3.12 mg/L (≈ 4.3 µM) | 6.25 mg/L (≈ 8.62 µM) | – | – | – | C[C@@]1(C(=O)O)[C@@H](O)CC[C@]2(C)c3cc4c5ccccc5n(-n5c6ccccc6c6cc7c(cc65)CC[C@H]5[C@](C)(C(=O)O)[C@@H](O)CC[C@]75C)c4cc3CC[C@@H]12 (stereo in doubt; 5) | – |
| – | – | – | – | – | – | – | 0.78 mg/L (≈ 1.08 µM) | 3.12 mg/L (≈ 4.3 µM) | – | 3.12 mg/L (≈ 4.3 µM) | 3.12 mg/L (≈ 4.3 µM) | – | 1.56 mg/L (≈ 2.15 µM) | C[C@@]1(C(=O)O)[C@@H](O)CC[C@]2(C)c3cc4c(cc3CC[C@@H]12)[nH]c1c(-n2c3ccccc3c3cc5c(cc32)CC[C@H]2[C@](C)(C(=O)O)[C@@H](O)CC[C@]52C)cccc14 (stereo in doubt; 2) | – |

More lines, now with the values behind:

| SMILES | MIC (Enterococcus faecalis; [1]) | MIC (Enterococcus faecium; [2]) | MIC (Micrococcus luteus; [3]) | MIC (Pseudomonas aeruginosa; [4]) | MIC (Escherichia coli) | MIC (Salmonella typhimurium) | MIC (Staphylococcus aureus; [5]) | MIC (Staphylococcus aureus; 18 h) | MIC (Enterococcus faecium; 18 h) | MIC (Pseudomonas aeruginosa; 18 h) | MIC (Enterococcus faecalis; 18 h) | MIC (Micrococcus luteus; 18 h) | MIC (Micrococcus luteus) | MIC (Pseudomonas aeruginosa) | MIC (Staphylococcus aureus; Staphylococcus aureus, CCARM 3090, read-out: MIC) |
| --- | --- | --- | --- | --- | --- | --- | --- | --- | --- | --- | --- | --- | --- | --- | --- |
| CN(C)[C@@H]1C(O)=C(C(N)=O)C(=O)[C@@]2(O)C(O)=C3C(=O)c4c(O)cccc4[C@@](C)(O)[C@H]3C[C@@H]12 [TETRACYCLINE] | > 25 mg/L | 1.56 mg/L (≈ 3.51 µM) | 6.25 mg/L (≈ 14.1 µM) | 12.5 mg/L (≈ 28.1 µM) | 1.56 mg/L (≈ 3.51 µM) | > 25 mg/L | – | – | – | – | – | – | – | – | 6.25 mg/L (≈ 14.1 µM) |
| C[C@@]1(C(=O)O)[C@@H](O)CC[C@]2(C)c3cc4c(cc3CC[C@@H]12)[nH]c1ccc(S(=O)(=O)c2c3c(cc5c2[nH]c2ccccc25)[C@@]2(C)CC[C@H](O)[C@@](C)(C(=O)O)[C@@H]2CC3)cc14 | > 12.5 mg/L | 6.25 mg/L (≈ 7.92 µM) | > 12.5 mg/L | > 12.5 mg/L | > 12.5 mg/L | > 12.5 mg/L | 12.5 mg/L (≈ 15.8 µM) | – | – | – | – | – | – | – | – |
| C[C@@]1(C(=O)O)[C@@H](O)CC[C@]2(C)c3cc4c5ccccc5n(-c5c6c(cc7c5[nH]c5ccccc57)[C@@]5(C)CC[C@H](O)[C@@](C)(C(=O)O)[C@@H]5CC6)c4cc3CC[C@@H]12 (stereo in doubt; 4) | – | – | – | – | – | – | – | >12.5 mg/L | >12.5 mg/L | >12.5 mg/L | – | – | – | – | – |
| C[C@@]1(C(=O)O)[C@@H](O)CC[C@]2(C)c3cc4c5ccccc5n(-c5c6c(cc7c5[nH]c5ccccc57)[C@@]5(C)CC[C@H](O)[C@@](C)(C(=O)O)[C@@H]5CC6)c4cc3CC[C@@H]12 (stereo in doubt; 3) | > 12.5 mg/L | 12.5 mg/L (≈ 17.2 µM) | > 12.5 mg/L | 6.25 mg/L (≈ 8.62 µM) | > 12.5 mg/L | > 12.5 mg/L | 6.25 mg/L (≈ 8.62 µM) | – | – | – | – | – | – | – | – |
| C[C@@]1(C(=O)O)[C@@H](O)CC[C@]2(C)c3cc4c(cc3CC[C@@H]12)[nH]c1ccc(-n2c3ccccc3c3cc5c(cc32)CC[C@H]2[C@](C)(C(=O)O)[C@@H](O)CC[C@]52C)cc14 | 3.12 mg/L (≈ 4.3 µM) | 1.56 mg/L (≈ 2.15 µM) | 3.12 mg/L (≈ 4.3 µM) | 0.78 mg/L (≈ 1.08 µM) | > 12.5 mg/L | > 12.5 mg/L | 0.78 mg/L (≈ 1.08 µM) | – | – | – | – | – | – | – | – |
